61 molecules from PubChem BioAssay AID504313 (Emory University Molecular Libraries Screening Center, 2011) can be followed below.

The structures appear in SMILES notation. The source made the active and inactive calls. How the calls were made is not given here.

As usually defined, the IC50 is the concentration needed to halve the response being measured.

The target in this assay is X-box-binding protein 1 (Homo sapiens) (UniProt P17861). As to the kind of experiment: XBP1 reporter suppression in cells – counter-screen, dose response (AID 504313).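 Further: CHO cells carrying an XBP1 reporter stimulated with tunicamycin; potency is for inhibition of the tunicamycin-induced reporter signal.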 Particulars: XBP1 reporter cell assay, percent of control. (The purpose of a counterscreen is to sort out artefacts and off-target activity.)
Turning to `Cc1nc(SCC(=O)Nc2ccc(C)c(F)c2)c2oc3ccccc3c2n1`, the IC50 was > 10 µM (inactive).

Turning to `O=[N+]([O-])c1ccc(S(=O)(=O)CC(CN2CCCCC2)N2CCCCC2)cc1` (stereo unspecified), the IC50 entry is “inactive”.

Consider `COc1oc(-c2ccc(Cl)cc2)nc1C(F)(F)F`, for which the IC50 entry was “inactive”.

Consider `O=C(c1ccco1)N1CCN(c2c(-c3ccccc3)c3cc(Cl)ccc3[nH]c2=O)CC1`, for which the IC50 is > 10 µM (inactive).

For the molecule `Cc1cc(C)c(S(=O)(=O)c2ccccc2)c(OC(=O)c2cc(F)c(F)cc2Cl)n1`, the IC50 result is “inactive”.

In the case of `CC(C)c1ccc(-c2cc(C(=O)N3N=C(C(F)F)CC3(O)C(F)F)c3ccccc3n2)cc1` (stereo unspecified), the IC50 was 5.02 µM.

As to `O=C(Nc1ccc(C(O)(C(F)(F)F)C(F)(F)F)cc1)c1ccc(Cl)c([N+](=O)[O-])c1`, the IC50 entry is “inactive”.

For `CCCC(=O)NC(NC(=S)Nc1ccc(N=Nc2ccccc2)cc1)C(Cl)(Cl)Cl` (stereo unspecified), the IC50 is > 10 µM (inactive).

Turning to `CCCOc1ccc(Cc2c(Cl)nc(SC)nc2NC)cc1`, the IC50 is > 10 µM (inactive).

Turning to `Cc1ccc2nc(-c3cc(-c4ccccc4)no3)cn2c1`, the IC50 is > 10 µM (inactive).

In the case of `C/C(=N\OCc1cccc(C(=O)O)c1)c1ccc(Cl)cc1`, the IC50 entry is “inactive”.

`CC(=O)Nc1ccc(NC2=Nc3ccccc3N3C2=Nc2c(c(C)nn2-c2ccccc2)C3c2ccccc2)cc1` (stereo unspecified): the IC50 entry is “inactive”.

`Clc1ccc2c(N/N=C/c3ccc(Br)cc3)ccnc2c1`: the IC50 was > 10 µM (inactive).

As for `C#CC(=O)N(c1cccc(OC)c1)C(C(=O)NC1CCCC1)c1cccs1` (stereo unspecified), the IC50 entry was “inactive”.

On to `COc1ccc([C@H]2Oc3cc(O)cc(O)c3C(=O)C2[C@@H]2C(=O)c3c(O)cc(O)cc3O[C@@H]2c2ccc(OC)cc2)cc1` (stereo partly specified), for which the IC50 was > 10 µM (inactive).

For the molecule `CCCc1cc(=O)[nH]c(Nc2ccc(N3CCCCC3)cc2)n1`, the IC50 is > 10 µM (inactive).

On to `O=[N+]([O-])c1ccc(-c2nc(C(Cl)Cl)c3ccccc3n2)cc1`, for which the IC50 was 1.34 µM.

For `CN(C)c1ccc(C(CNS(=O)(=O)c2ccc(F)c(F)c2)c2c[nH]c3ccccc23)cc1` (stereo unspecified), the IC50 result is “inactive”.

For the molecule `Oc1ccc(Br)cc1-c1cc(-c2ccccc2F)[nH]n1`, the IC50 is > 10 µM (inactive).

Take `CCOC(=O)CN1C(c2ccc(O)cc2)Nc2ccc(Br)cc2C1c1ccccc1` (stereo unspecified): the IC50 is > 10 µM (inactive).

Regarding `O=C(O)c1cccc(COc2ccc(CO)cc2Cl)c1`, the IC50 is less than 0.16 µM.

As for `CC(=O)/C=C/n1c(=S)oc2ccccc21`, the IC50 result was “inactive”.

Regarding `CC(C)(C)c1ccc(S(=O)(=O)NCC(=O)Nc2sc3c(c2C(N)=O)CCCC3)cc1`, the IC50 is > 10 µM (inactive).

Regarding `CCCC(=O)N1CCN(c2ccc(NC(=O)c3cc4ccccc4o3)cc2Cl)CC1`, the IC50 entry was “inactive”.

Take `C=CCc1cc(C)ccc1OCC(O)CN1CCN(c2ccccc2)CC1` (stereo unspecified): the IC50 entry was “inactive”.

Consider `CC1(C)C[C@H]2C=C(C=O)[C@]3(C=O)C[C@]3(C)[C@H]2C1`, for which the IC50 is 2.35 µM.

Consider `O=C(C1=C(c2ccccc2)C(=O)c2ccccc2C1=O)c1ccccc1`, for which the IC50 entry was “inactive”.

Turning to `O=C(c1ccc(Cl)cc1)N1CCC(O)(CSc2ccc(Cl)cc2Cl)CC1`, the IC50 is > 10 µM (inactive).

As for `CC(C)(C)c1nnc(N/N=C/c2cc(Br)ccc2O)n(N)c1=O`, the IC50 is 6.02 µM.

With `O=C(Nc1ccccc1-c1nc2ccccc2[nH]1)c1sc2ccccc2c1Cl`, the IC50 is > 10 µM (inactive).

As to `Cc1ccc(C(C(=O)NCc2ccco2)N(C(=O)CNC(=O)c2cccs2)c2c(C)cccc2C)cc1` (stereo unspecified), the IC50 was > 10 µM (inactive).

In the case of `Nc1nc(-c2ccccc2)c(N=Nc2ccccc2Cl)s1`, the IC50 entry is “inactive”.

On to `CCN1C/C(=C/c2ccc(OC)c(O)c2)C(=O)/C(=C/c2ccc(OC)c(O)c2)C1`, for which the IC50 result was “inactive”.

Consider `C=CCn1c(SCC(=O)Nc2ccc(-c3nc4ccc(C)cc4s3)cc2)nnc1-c1ccccc1`, for which the IC50 is > 10 µM (inactive).

For the molecule `Cc1cc(-c2n[nH]c(=S)n2/N=C/C(Br)=C/c2ccccc2)n[nH]1`, the IC50 entry is “inactive”.

Regarding `Cc1ccc(-c2ccc(/C=C3\C(=O)ON=C3c3ccccc3)o2)c([N+](=O)[O-])c1`, the IC50 is > 10 µM (inactive).

`COc1cc(/C=C2\COC/C(=C\c3cc(OC)c(OC)c(OC)c3)C2=O)cc(OC)c1OC`: the IC50 is 1.39 µM.

Turning to `COc1cc2c(cc1OC)C(c1ccccc1)N(C(=O)CCl)CC2` (stereo unspecified), the IC50 entry is “inactive”.

Regarding `CC1=CC2/C=C(\C)CCC(O)C(O)/C=C/C(=O)C23C(=O)NC(CC(C)C)C3C1C` (stereo unspecified), the IC50 entry is “inactive”.

In the case of `C/C(=N\NC(=O)c1nn(C)c(C)c1Br)c1ccc(NC(=O)c2ccoc2C)cc1`, the IC50 is > 10 µM (inactive).

Regarding `CCN(CCO)c1ncnc2c1sc1nc(C(C)C)c3c(c12)CC(C)(C)OC3`, the IC50 is > 10 µM (inactive).

Consider `COc1cc(/C=N/O)cc(Br)c1OCc1cccc(Cl)c1`, for which the IC50 entry was “inactive”.

As to `CCOC(=O)C1=C(C)NC(C)=C(C(=O)OCC)C1/C=C/c1ccccc1`, the IC50 result is “inactive”.

`O=C1C(C2=NC(c3ccccn3)C3C(=O)N(c4ccc(Cl)cc4Cl)C(=O)C23)=C(O)c2ccccc21` (stereo unspecified): the IC50 result was “inactive”.

In the case of `O=C(CCl)Nc1cn(-c2ccccc2)nc1-c1ccc(F)cc1`, the IC50 was > 10 µM (inactive).

Regarding `C=C1C(=O)O[C@@H]2C[C@@H](C)[C@@H]3C=CC(=O)[C@@]3(C)[C@@H](O)[C@H]12`, the half-inhibitory concentration (IC50) is 2.43 µM.

Regarding `O=C(/C=C/c1cccc([N+](=O)[O-])c1)n1cnc2ccccc21`, the IC50 result is “inactive”.

With `COc1ccccc1NCC(O)COc1ccc(C(C)(C)C)cc1` (stereo unspecified), the IC50 result is “inactive”.

With `Cc1ccc(-c2nnc(-c3ccc(NC(=O)Cc4cccs4)cc3)o2)cc1`, the IC50 is > 10 µM (inactive).

As for `Cc1cc(C)n(-c2nc(N(c3ccccc3)c3ccccc3)nc(-n3nc(C)cc3C)n2)n1`, the IC50 result was “inactive”.

Turning to `Cc1cccc(/C=C/C(=O)c2cc(Br)ccc(=O)c2O)c1`, the IC50 is > 10 µM (inactive).

As to `CCOc1cc(/C=N/NC(=O)Cc2ccc(C(F)(F)F)cc2[N+](=O)[O-])c(Br)cc1OC`, the IC50 result is “inactive”.

In the case of `CCOc1ccc2nc(NC(=O)CSc3nc4c(c(=O)n(C)c(=O)n4C)n3C(C)C)sc2c1`, the IC50 was > 10 µM (inactive).

On to `CCC(C)c1ccc(O)c(NC(=O)c2cncc(Br)c2)c1` (stereo unspecified), for which the IC50 entry is “inactive”.

Regarding `Cc1ccc(S(=O)(=O)/N=C2/C=C(Sc3ncn[nH]3)C(=O)c3ccccc32)cc1`, the IC50 result is “inactive”.

Regarding `Cc1ccc(N=C2SC(C(=O)Nc3ccc(OC(F)(F)F)cc3)C(N)=C2C(=O)Nc2c(C)cc(C)cc2C)cc1` (stereo unspecified), the IC50 is > 10 µM (inactive).

Regarding `N#CC1=C(N)N2C(=C(C#N)C1c1ccc(Br)cc1)Nc1ccccc12` (stereo unspecified), the IC50 entry was “inactive”.

On to `CC(NC(=O)/C(C#N)=C/c1ccc(Cl)c([N+](=O)[O-])c1)c1ccccc1` (stereo unspecified), for which the IC50 was > 10 µM (inactive).

With `CC1=NN(c2nc(-c3ccc(C)cc3)cs2)C(=O)C1N=Nc1ccccc1O` (stereo unspecified), the IC50 entry is “inactive”.

In the case of `CCn1c(C)nc2cc(-c3nc4n(n3)Cc3ccccc3-4)ccc21`, the IC50 is < 0.16 µM (inactive).

Regarding `Cc1cccc(NC2=C/C(=N/S(=O)(=O)c3cccs3)c3ccccc3C2=O)c1`, the IC50 was 1.31 µM.
